Among the test systems are Escherichia coli BL21; Salmonella sp.; Aureobasidium pullulans; Bacillus megaterium; Micrococcus luteus; Enterococcus faecalis; Escherichia coli W3110; Staphylococcus aureus.
What all share (test): ≥ marks a high value that may be exact or a test limit, other limits are often not marked, values filed in µg/mL are converted to µM
The test system of assay [1] is Escherichia coli PCM 2057.
The test system of assay [2] is Streptococcus pyogenes M1T1 5448.
For assay [3], the system named is Pseudomonas aeruginosa PAO1.
The test system of assay [4] is Bacillus licheniformis X39.
Assay [5] deals with Staphylococcus aureus ATCC 2592.
Assay [6] has as its system Psychrobacter faecalis X29.
The subject of assay [7] is Rhodococcus rhodochrous X15.
The test system of assay [8] is Candida albicans ATCC 10231.
Assay [9] deals with Bacillus subtilis ATCC 23857.
Assay [10] concerns Escherichia coli ATCC 25922.
The test system of assay [11] is Pseudomonas aeruginosa ATCC 27853.
Assay [12] relates to Corynebacterium glutamicum ATCC 13032.
Assay [13] relates to Staphylococcus aureus ATCC 9144.
In assay [14] the test system is Escherichia coli IFO 3301.
The test system of assay [15] is Bacillus subtilis IFO 3336.
Assay [16] has as its system Pseudomonas aeruginosa MR3007.
For assay [17], the system named is Staphylococcus aureus 930918-3.
Assay [18] concerns Staphylococcus aureus ATCC 33591.
Assay [19] concerns Streptococcus gordonii Challis DL1.
The subject of assay [20] is Pseudomonas aeruginosa PAK.
In assay [21] the test system is Streptococcus sobrinus ATCC 33478.
For assay [22], the system named is Streptococcus mitis ATCC 903.
Assay [23] concerns Streptococcus sanguinis NY101.
For assay [24], the system named is Streptococcus mutans UA159.

The structures appear in SMILES notation. ≈ marks a conversion by molar mass, not a printed value. A value given as a limit tells only on which side of the number the result lay.

Take `CC[C@H](C)[C@H](NC(=O)[C@H](CC(N)=O)NC(=O)[C@H](C)NC(=O)[C@H](C)N)C(=O)N1CCC[C@H]1C(=O)N[C@@H](Cc1ccccc1)C(=O)N[C@@H](CCCCN)C(=O)N[C@H](C(=O)N[C@@H](Cc1cnc[nH]1)C(=O)N[C@@H](Cc1ccccc1)C(=O)N[C@@H](CCCN=C(N)N)C(=O)N[C@H]1CSSC[C@@H](C(=O)O)NC(=O)[C@H](Cc2ccccc2)NC(=O)[C@H](C)NC(=O)[C@H](C)NC(=O)[C@H](CCCCN)NC1=O)C(C)C` [AANIPFKVHFRCKAAFC]: the MIC in assay [1] was no less than 520 µM.
`CC[C@H](C)[C@H](NC(=O)[C@H](CCCCN)NC(=O)[C@H](CCCCN)NC(=O)CNC(=O)[C@H](CCC(=O)O)NC(=O)[C@H](CCC(N)=O)NC(=O)[C@@H](NC(=O)[C@@H](NC(=O)[C@H](CCCCN)NC(=O)[C@H](CCCCN)NC(=O)[C@H](CC(C)C)NC(=O)[C@H](CCCN=C(N)N)NC(=O)[C@H](CCC(N)=O)NC(=O)[C@H](Cc1ccccc1)NC(=O)[C@@H](NC(=O)[C@H](CCCCN)NC(=O)[C@H](CCC(=O)O)NC(=O)[C@@H](NC(=O)CNC(=O)[C@H](C)N)[C@@H](C)O)[C@@H](C)CC)[C@@H](C)O)[C@@H](C)CC)C(=O)N[C@@H](C)C(=O)N[C@@H](CCCCN)C(=O)N[C@@H](CCCN=C(N)N)C(=O)N[C@@H](Cc1c[nH]c2ccccc12)C(=O)N[C@@H](Cc1c[nH]c2ccccc12)C(=O)O` [AGTEKIFQRLKKTIQEGKKIAKRWW]: the MIC was determined as 0.125 µM (≈ 0.381 µg/mL) in assay [2], 16 µM (≈ 48.7 µg/mL) in [3] and 0.25 µM (≈ 0.761 µg/mL) in the assay on Escherichia coli BL21.
In turn, `CC[C@H](C)[C@H](NC(=O)[C@H](C)NC(=O)CNC(=O)[C@@H](NC(=O)[C@@H](N)Cc1ccccc1)[C@@H](C)CC)C(=O)N[C@@H](C)C(=O)N[C@@H](CCCN=C(N)N)C(=O)N[C@@H](CC(C)C)C(=O)N[C@@H](CC(C)C)C(=O)N[C@@H](CO)C(=O)N[C@@H](CCCCN)C(=O)N[C@H](C(=O)N[C@@H](Cc1ccccc1)C(=O)O)[C@@H](C)CC` [FIGAIARLLSKIF] had an MIC against Salmonella sp. of no less than 90.5 µM.
Consider `CC[C@H](C)[C@@H]1NC(=O)[C@H](CCCCN)NC(=O)[C@@H](NC(=O)[C@@H](NC(=O)[C@@H](NC(=O)[C@H](CCC(N)=O)NC(=O)[C@@H]2CCCN2C(=O)[C@H](CC(C)C)NC(=O)[C@H](Cc2ccccc2)NC(=O)[C@H](CC(N)=O)NC(=O)[C@H](C)NC(=O)[C@@H](NC(=O)[C@@H](NC(=O)CNC(=O)[C@H](C)NC(=O)[C@H](CC(C)C)NC(=O)[C@H](CC(C)C)NC(=O)[C@@H]2CCCN2C(=O)[C@H](CC(C)C)NC(=O)[C@@H](N)Cc2ccccc2)C(C)C)C(C)C)[C@@H](C)CC)[C@@H](C)CC)CSSC[C@@H](C(=O)O)NC(=O)[C@H](CCCCN)NC(=O)[C@H](CCCN=C(N)N)NC(=O)[C@H](C)NC1=O` [FLPLLAGVVANFLPQIICKIARKC], for which the MIC came out at 9.51 µM (≈ 25 µg/mL) in assay [4], 2.4 µM (≈ 6.3 µg/mL) in assay [5], 4.76 µM (≈ 12.5 µg/mL) in [6] and 1.18 µM (≈ 3.1 µg/mL) in assay [7].
Regarding `C[C@H](NC(=O)[C@H](CCCCN)NC(=O)[C@H](Cc1c[nH]c2ccccc12)NC(=O)CNC(=O)[C@H](Cc1c[nH]c2ccccc12)NC(=O)[C@@H]1CCCN1C(=O)[C@H](CCCCN)NC(=O)[C@H](CCCCN)NC(=O)CN)C(=O)N[C@@H](CCCCN)C(N)=O` [GKKPWGWKAK], the minimum inhibitory concentration (MIC) in assay [8] is 105 µM (≈ 125 µg/mL); in assay [9] it was no less than 211 µM; with Aureobasidium pullulans, no less than 52.7 µM; in assay [10], greater than 211 µM; in [11], greater than 211 µM; with Bacillus megaterium, 3.29 µM (≈ 3.9 µg/mL). Besides, the MIC in assay [12] was 13.2 µM (≈ 15.6 µg/mL); with Micrococcus luteus, no less than 211 µM; in assay [13], no less than 211 µM.
For the compound `NCCCC[C@H](NC(=O)[C@H](Cc1cnc[nH]1)NC(=O)[C@H](CCCCN)NC(=O)[C@H](Cc1cnc[nH]1)NC(=O)[C@H](CCCCN)NC(=O)[C@H](Cc1cnc[nH]1)NC(=O)[C@H](CCCCN)NC(=O)[C@H](Cc1cnc[nH]1)NC(=O)[C@@H](N)CCCCN)C(=O)N[C@@H](Cc1cnc[nH]1)C(=O)O` [KHKHKHKHKH], the MIC in assay [14] and in assay [15] was 7.44 µM (≈ 10 µg/mL) throughout.
For `CC[C@H](C)[C@H](NC(=O)[C@H](CCCCN)NC(=O)[C@H](CCC(N)=O)NC(=O)CNC(=O)[C@@H](NC(=O)[C@H](CCCCN)NC(=O)[C@H](CCCCN)NC(=O)[C@H](CC(C)C)NC(=O)[C@H](CCCCN)NC(=O)[C@H](CCC(=O)O)NC(=O)[C@H](CCCCN)NC(=O)[C@@H](NC(=O)[C@@H](N)CCCCN)[C@@H](C)CC)[C@@H](C)CC)C(=O)O` [KIKEKLKKIGQKI], the MIC in assay [16], in [17] and in assay [18] was no less than 160 µM in each case.
Consider `CC[C@H](C)[C@H](NC(=O)[C@H](Cc1cnc[nH]1)NC(=O)[C@H](CCCCN)NC(=O)[C@@H](NC(=O)[C@@H](N)CC(C)C)[C@@H](C)CC)C(=O)N[C@@H](CC(C)C)C(=O)N[C@@H](Cc1cnc[nH]1)C(=O)N[C@@H](CCCN=C(N)N)C(=O)N[C@@H](CC(C)C)C(N)=O` [LIKHILHRL], for which the MIC (in assay [19]; in assay [20]; in [21]; in assay [22]; against Enterococcus faecalis; in assay [23]) was no less than 438 µM throughout. Further, the figures for the minimum inhibitory concentration (MIC) (against Escherichia coli W3110; in assay [24]; with Staphylococcus aureus) were no less than 438 µM, no less than 109 µM and greater than 438 µM, respectively.
Regarding `NC(N)=NCCC[C@H](NC(=O)CNC(=O)[C@H](CCCN=C(N)N)NC(=O)CNC(=O)[C@H](CCCN=C(N)N)NC(=O)CNC(=O)[C@H](CCCN=C(N)N)NC(=O)CNC(=O)[C@@H](N)CCCN=C(N)N)C(=O)NCC(=O)O` [RGRGRGRGRG], the MIC in assay [14] and in assay [15] was no less than 92.2 µM throughout.
As for `C[C@@H](O)[C@H](NC(=O)[C@H](Cc1c[nH]c2ccccc12)NC(=O)[C@H](Cc1c[nH]c2ccccc12)NC(=O)[C@H](Cc1ccc(O)cc1)NC(=O)[C@H](CO)NC(=O)[C@H](Cc1c[nH]c2ccccc12)NC(=O)[C@@H](N)Cc1c[nH]c2ccccc12)C(=O)N[C@@H](CCC(N)=O)C(=O)N[C@@H](Cc1c[nH]c2ccccc12)C(N)=O` [WWSYWWTQW], the MIC (in assay [19]; in assay [20]; in [21]; in assay [22]; against Enterococcus faecalis; in assay [23]) was no less than 87.5 µM each time. Further, the values for the MIC (against Escherichia coli W3110; in [24]; in the assay on Staphylococcus aureus) were no less than 87.5 µM, no less than 87.5 µM and greater than 87.5 µM, respectively.
